Assay results taken from ChEMBL document CHEMBL1201862, “PubChem BioAssay data set” (2004).
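Following 48 hours of exposure in 96-well plates, responses at five concentrations were used to interpolate endpoints linearly. The concentration for 50% growth inhibition is given as GI50.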 Active and inactive are the calls of the source. Cut-off read from the data, not from the text of the source: active = GI50 up to about 1.1 µM and inactive = higher.

Legend:
Assay in all cases: DTP human tumour cell line panel, 48 h
[1] = test system: DMS-273
[2] = test system: KM-20L2
[3] = test system: DMS-114
[4] = test system: M19-MEL
[5] = test system: SNB-78
[6] = test system: XF498
[7] = test system: HOP-18
[8] = test system: DLD-1
[9] = test system: RXF 631

| SMILES | GI50 [1] | GI50 [2] | GI50 [3] | GI50 [4] | GI50 [5] | GI50 [6] | GI50 [7] | GI50 [8] | GI50 [9] |
| --- | --- | --- | --- | --- | --- | --- | --- | --- | --- |
| COc1ccc2c(c1)OCCCN(C)OC2c1ccccc1 (configuration not stated) | > 100 µM (inactive) | > 100 µM (inactive) | > 100 µM (inactive) | > 100 µM (inactive) | > 100 µM (inactive) |  |  |  |  |
| CN(C)CCCNc1ccnc2c([N+](=O)[O-])cccc12 | 14.7 µM (inactive) | 4.36 µM (inactive) | 2.48 µM (inactive) | 2.44 µM (inactive) | 31.2 µM (inactive) | 14.8 µM (inactive) |  |  |  |
| O=S(=O)(c1ccccc1)n1cnc(CCc2ccccc2)n1 | > 100 µM (inactive) | > 100 µM (inactive) | > 100 µM (inactive) | > 100 µM (inactive) | > 100 µM (inactive) |  | > 100 µM (inactive) | > 100 µM (inactive) |  |
| CN(C)CCCCC1CCN(CC(=O)N2c3ccccc3NC(=O)c3ccccc32)CC1 | > 100 µM (inactive) |  | > 100 µM (inactive) | > 100 µM (inactive) | > 100 µM (inactive) | > 100 µM (inactive) |  | > 100 µM (inactive) | > 100 µM (inactive) |
| CC(C)n1c2c([n+](C)c1/C=C/c1ccccc1)C(=O)c1ccccc1C2=O | 0.0348 µM (active) | 0.0955 µM (active) | < 0.0148 µM (active) | 0.125 µM (active) | 0.0389 µM (active) |  |  | 0.426 µM (active) |  |
| C[n+]1c2ccccc2c(/C=N\NS(=O)(=O)c2ccc(O)c(C(=O)O)c2)c2ccccc21 | 35.6 µM (inactive) | 53.6 µM (inactive) | 34 µM (inactive) | 99.8 µM (inactive) | > 100 µM (inactive) | 14.9 µM (inactive) |  | 58.7 µM (inactive) | 31.6 µM (inactive) |
| Cc1cc([N+](=O)[O-])ccc1Nc1cccc(Cl)c1C | 14.6 µM (inactive) | 14 µM (inactive) | 13.5 µM (inactive) | 16.5 µM (inactive) |  |  | 14 µM (inactive) | 14.6 µM (inactive) | 16.2 µM (inactive) |
| CNC(=O)ON(C(C)=O)C(=O)NC [CARACEMIDE] | 75.2 µM (inactive) | 104 µM (inactive) | 31.1 µM (inactive) | 112 µM (inactive) | 133 µM (inactive) | 41.3 µM (inactive) | 97.7 µM (inactive) | 95.1 µM (inactive) |  |
| Cc1ccc(C(=O)/C=C/c2cccc([N+](=O)[O-])c2)cc1 | > 83.4 µM (inactive) | 36.6 µM (inactive) | 46.5 µM (inactive) | > 44.6 µM (inactive) | > 100 µM (inactive) |  | > 100 µM (inactive) | 44 µM (inactive) | > 73.8 µM (inactive) |
| O=C1C2Cc3ccccc3CN2C(=O)N1CCN1CCOCC1 (configuration not stated) | > 100 µM (inactive) | > 100 µM (inactive) | > 100 µM (inactive) | > 100 µM (inactive) |  |  |  | > 100 µM (inactive) | > 100 µM (inactive) |
| O=C(c1ccccc1)c1c(-c2ccccc2)sc2nc3ccccc3nc12 | > 100 µM (inactive) | > 100 µM (inactive) | > 100 µM (inactive) | > 100 µM (inactive) | 74 µM (inactive) | > 100 µM (inactive) |  |  |  |
| COc1ccccc1/C=C(\C#N)c1ccccc1 | 16.8 µM (inactive) | 23.6 µM (inactive) | 16.5 µM (inactive) | 32.6 µM (inactive) | 31.2 µM (inactive) |  | 38.5 µM (inactive) | 28.1 µM (inactive) |  |
| Cc1ccc(S(=O)(=O)SC(C)(C)C)cc1 | 19.8 µM (inactive) |  | 16.9 µM (inactive) | 33.8 µM (inactive) | 51.2 µM (inactive) | 15.6 µM (inactive) | > 100 µM (inactive) | 18.5 µM (inactive) | > 100 µM (inactive) |
| N=C(N)NS(=O)(=O)c1ccc(Nc2c3ccccc3nc3c(C(=O)Nc4ccc(S(N)(=O)=O)cc4)cccc23)cc1 | > 100 µM (inactive) | > 100 µM (inactive) | 45 µM (inactive) | > 100 µM (inactive) | 76.4 µM (inactive) | 25.3 µM (inactive) | > 100 µM (inactive) | > 100 µM (inactive) |  |
| COC1=CC(=O)c2c(cc3c(c2O)-c2c(OC)cc4cc5c(c(O)c4c2OC(=O)CC(C)(O)C3)C(=O)CC(C)(O)C5)C1=O (configuration not stated) | 1.64 µM (inactive) | 1.63 µM (inactive) | 1.69 µM (inactive) | 0.379 µM (active) | 1.85 µM (inactive) | 1.37 µM (inactive) | 1.3 µM (inactive) | 2.63 µM (inactive) |  |
| O=C1/C(=N\O)S(=O)(=O)c2ccccc21 | > 100 µM (inactive) | 59.2 µM (inactive) | > 100 µM (inactive) | > 100 µM (inactive) | > 100 µM (inactive) |  | > 100 µM (inactive) | > 100 µM (inactive) | > 100 µM (inactive) |
| N=S(=O)(c1ccccc1)c1ccccc1[N+](=O)[O-] (configuration not stated) | > 100 µM (inactive) | > 100 µM (inactive) |  | > 100 µM (inactive) | > 100 µM (inactive) | > 100 µM (inactive) | > 100 µM (inactive) | > 100 µM (inactive) | > 100 µM (inactive) |
| N#C/N=C1\NCCC(=O)N1CCc1c[nH]c2ccccc12 | > 100 µM (inactive) |  | > 100 µM (inactive) | > 100 µM (inactive) | > 100 µM (inactive) | > 100 µM (inactive) |  | > 100 µM (inactive) |  |
| O=C1c2ccccc2-c2cccc3ccc(Cc4ccccc4)c1c23 | > 100 µM (inactive) | > 100 µM (inactive) | > 100 µM (inactive) | > 100 µM (inactive) | > 100 µM (inactive) | > 100 µM (inactive) |  | > 100 µM (inactive) | > 100 µM (inactive) |
| CCCN1C(=O)C/C(=C\C(C)=O)Nc2ccccc21 | > 100 µM (inactive) |  | 71.4 µM (inactive) | > 100 µM (inactive) | 80.2 µM (inactive) | > 100 µM (inactive) |  | > 100 µM (inactive) |  |
| CC1=Nc2c(O)nc(S)nc2NC(c2c(Cl)cccc2Cl)C1 (configuration not stated) | 1.95 µM (inactive) | 4.23 µM (inactive) | 3.05 µM (inactive) | 1.48 µM (inactive) | 4.43 µM (inactive) | 3.1 µM (inactive) | 15.2 µM (inactive) | 2.42 µM (inactive) | 5.75 µM (inactive) |
| O=C(c1ccccc1)c1oc2ccc(Br)cc2c1-c1cnn(-c2ccccc2)c1 | > 100 µM (inactive) | > 100 µM (inactive) | > 100 µM (inactive) | > 100 µM (inactive) | > 100 µM (inactive) | > 100 µM (inactive) |  | > 100 µM (inactive) |  |
